Measurements taken from patent US11738064B2, “Pharmaceutical composition for preventing and treating eye diseases, containing as active ingredient, fusion protein in which tissue-penetrating peptide and anti-vascular endothelial growth factor preparation are fused” (ILDONG PHARM CO., LTD., priority 2015, dated 2023).
Each block holds one molecule with its values, some of them ahead of it.

Columns and labels:
VEGF-A = target: T1, VEGF-A (Homo sapiens, UniProt P15692); details: designed property, versus ranibizumab; cited from earlier work
T1 sequence (P15692 207-395): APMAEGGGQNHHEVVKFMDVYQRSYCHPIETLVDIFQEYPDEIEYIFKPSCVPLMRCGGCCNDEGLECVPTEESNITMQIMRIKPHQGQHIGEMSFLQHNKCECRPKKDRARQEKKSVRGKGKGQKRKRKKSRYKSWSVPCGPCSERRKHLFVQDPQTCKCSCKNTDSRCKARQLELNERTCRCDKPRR

[1] = cited from earlier work
[2] = tested on: retinal neovascularization; experiment: Oxygen-induced retinopathy (OIR) model, retinal neovascularization (isolectin B4, tufts); assay type: in vivo, C57BL/6 mice; details: 10 μg/eye intraocular; FIG. 12B
Experimental: (§1) Mice burn by crossbreeding of 7- to 8-week old C57BL/6 purchased from Koatech were used as experimental animals. On day 7 after birth, mice (postnatal day 7, P7) were placed in an oxygen chamber, and the oxygen concentration in the chamber was adjusted and maintained at 75% (hyperoxia) for 5 days (P7 to P11). The illumination in the laboratory was turned on or off every 12 hours and the temperature was maintained at 24±2° C. The mice were fed with free access to feed and drinking water. After 5 days, the mice were exposed to inner air (normoxia) out of the chamber for 5 days (P12-P17) to induce retinal angiogenesis. For drug administration, the mice were randomly divided into five groups (10 mice per group) immediately after the exposure to normoxia on P12, as shown in Table 7. Drugs were administered intraocularly at concentrations appropriate for respective groups using Hamilton syringe (Hamilton, USA). The same amount of vehicle was administered to the OIR group, and 10 μg/eye of ranibizumab was administered as control drug. Subjects with surgical damage caused by drug administration or subjects with lens opacities or the like were excluded from subsequent experiment procedures.
In addition, the extent of neovascularization in the retina was also evaluated. […]

vascular leakage = experiment: Oxygen-induced retinopathy (OIR) model, vascular leakage (dextran fluorescence extravasation); assay type: in vivo, C57BL/6 mice; details: 10 μg/eye intraocular on P12, evaluated P17; FIG. 11A
Experimental: as §1
The degree of retinal edema was evaluated on day 17 after birth. […] The amount of fluorescence extravasated out of vessels was quantitatively analyzed using Image J.

[3] = tested on: corneal neovascularization; experiment: Corneal neovascularization resistance model; assay type: in vivo, C57BL/6 mice; details: eye drops for 10 days from 10 days after alkaline burn; FIG. 7B
Experimental: The 6-week old female C57BL/6 mice were used. After anesthesia (Zoletil 40 mg/kg+Rompun 5 mg/kg, IP), the NaOH filter paper was placed on the left eye cornea to induce an alkaline burn for 30 seconds, followed by sufficient washing with 40 ml of PBS, thereby constructing corneal neovascularization animal models. […] Each drug was administered through eye drops at a concentration of 5 mg/ml with 5 μl each time, four times a day for 5 days. After the completion of the administration, the eyeballs were extracted, immersed and fixed in 4% paraformaldehyde solution for one hour, and washed with PBS, and then the cornea was isolated using a dissecting microscope. The isolated cornea was additionally fixed in a 4% paraformaldehyde solution for 12 hours. The fixed cornea was washed with PBS, and subjected to reaction in a blocking buffer (PBS, 0.3% BSA, 0.1% Triton X100) at room temperature for 2 hours. A primary antibody (BD Pharmingen) specific to PECAM-1 (CD31) as a vascular endothelial marker and a primary antibody (Millipore) specific to NG-2 as a pericyte marker were reacted overnight in a refrigerator, and secondary fluorescent antibodies (Alexa Fluor488, Alexa Fluor594, Life Technologies) were reacted at room temperature for 4 hours for tissue staining. […]

[4] = tested on: choroidal neovascularization; experiment: Laser-induced choroidal neovascularization (CNV) model; assay type: in vivo, Brown Norway (BN) rats; details: 100 μg/eye intraocular, 10 days after administration; FIG. 10B
Experimental: Seven-week old male Brown Norway (BN) rats (SLC Japan, Tokyo, Japan) were acclimated for one week, and then anesthetized by peritoneal injection of pentobarbital sodium (Hanlim Pharm, 25 mg/kg). Thereafter, the pupil was dilated with 1% tropicamide eye drops, and then six photocoagulation spots were formed around the optic nerve head using a diode laser (wavelength, 532 nm; diameter, 100 μm; power, 150 mW; time period, 0.1 sec). The destruction of Bruch's membrane was verified by the formation of characteristic bubbles. The eyeballs with hemorrhage or no bubbles were excluded from the subsequent experimental procedures. Drugs were administered intraocularly at concentrations appropriate for respective groups using Hamilton syringe (Hamilton, USA). The same amount of vehicle was administered to the CNV group, and 100 μg/eye of ranibizumab was administered as control drug. Subjects with surgical damage caused by drug administration or subjects with lens opacities or the like were excluded from subsequent experimental procedures.
The degree of choroidal neovascularization was evaluated 10 days after drug administration. The eyeball of each rat was extracted, and then incised at a region adjacent to the cornea and sclera under a microscope. […] The sizes of subretinal neovascular areas were analyzed using Image J software (NIH, USA).

[5] = Ex-vivo ocular penetration model, extracted eyeballs immersed in FITC-conjugated protein; assay type: in vitro ADME, C57BL/6 mouse; details: confocal microscope; FIG. 8E
Experimental: The eyeballs were fixed at 4° C. for 4 hours using Davidson's solution (glacial acetic acid:ethyl alcohol:neutralized formalin:distilled water=1:3:2:3), and then the anterior tissue of the conjunctiva was partially cut with scissors, and the retinal metaplasia was minimized in a paraffin slide preparation step. After overnight fixation at 4° C. using 10% (v/v) formalin solution, moisture was removed from the tissues by increasing the concentration of alcohol from low to high concentration using an automatic infiltration machine, followed by transparency with xylene and then paraffin penetration. The paraffin penetration-completed tissue was placed in a base mold to make a paraffin block, and 4 sections were prepared using a microtome. The paraffin sections were unfolded to be attached to slides pre-coated with albumin, poly-L-lysine, and saline in a floating constant-temperature water bath. The tissue slides were deparaffinized and then directly mounted, and then FITC was observed using a confocal microscope to investigate the ocular tissue penetration and distribution.
Thereafter, while unconjugated FITC was removed using PD-10 desalting column, the buffer was changed with PBS, and then the purified product was quantified, and used as a sample for efficacy evaluation.

macular degeneration = details: cited from earlier work
[6] = half-dose (250 μg) dropped 6 times at 2 hour intervals in rabbits; cited from earlier work
neuropilin 1 (NRP 1) = experiment: SPR (Biacore 2000) assay of binding ability to neuropilin 1 receptor; details: Table 4, receptor NRP 1, read-out: Affinity, KD
Sequence of neuropilin 1 (NRP 1) (O14786 273-586 limits assumed): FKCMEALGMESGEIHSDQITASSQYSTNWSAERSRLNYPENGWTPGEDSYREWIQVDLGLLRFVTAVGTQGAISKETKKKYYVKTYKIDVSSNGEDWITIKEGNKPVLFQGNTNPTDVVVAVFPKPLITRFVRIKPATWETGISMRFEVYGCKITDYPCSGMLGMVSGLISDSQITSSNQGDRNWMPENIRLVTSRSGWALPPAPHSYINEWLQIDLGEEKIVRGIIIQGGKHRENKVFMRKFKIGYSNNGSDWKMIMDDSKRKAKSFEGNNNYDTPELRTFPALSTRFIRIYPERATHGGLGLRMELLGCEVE
Experimental: First, the affinity to a neuropilin receptor was performed on neuropilin 1 (NRP 1). Specifically, surface plasmon resonance (SPR) was performed using Biacore 2000 (GE Healthcare) in order to investigate the binding ability of TPP to the neuropilin 1 domain. Specifically, each neuropilin 1 domain was diluted in 10 mM Na-acetate buffer (pH 4.0), and fixed on CMS sensor chip (GE Healthcare, USA) at about 1,000 response units (RU). […] After the association/dissociation analysis, the CMS chip was regenerated by allowing buffer (20 mM NaOH, 1M NaCl, pH 10.0) to flow at a flow rate of 30 μl/min for 1 minute.
After the Biacore CMS chip was activated with EDC/NHS mixture, target protein NRP1 was diluted in a fixing buffer (10 mM sodium acetate, pH 5.5), and fixed to final 79 Ru through calculation at Rmax: 200.

Molecule: aflibercept
- increase in binding ability to VEGF-A (VEGF-A): 100 fold

Molecule: conbercept
- bioavailability at the time of applying eye drops [1]: less than 5%

Molecule: ranibizumab
- degree of neovascularization relative to vehicle group, in words [2]: the same degree of neovascularization
- vascular leakage compared to the vehicle group (vascular leakage): somewhat reduced
- neovessel reducing efficacy, in words [3]: no significant efficacy
- inhibition of (neo)vascularization in comparison with the vehicle group [4]: about 31%
- distribution in cross-section of the ocular retinal tissue [5]: mostly present near the sclera
- patients with macular degeneration showing response (macular degeneration; at the time of development): about 90%
- responding patients showing a therapeutic effect, such as eyesight improvement (macular degeneration; human, in vivo): 30%
- time to reach the retinal tissue after eye drops [6]: 3 to 7 days

- Kd (neuropilin 1 (NRP 1)): 27.9 nM
B1: Sema3A: secreted class 3 semaphorin ligand binding to neuropilin (protein)
chain: NYQNGKNNVPRLKLSYKEMLESNNVITFNGLANSSSYHTFLLDEERSRLYVGAKDHIFSFDLVNIKDFQKIVWPVSYTRRDECKWAGKDILKECANFIKVLKAYNQTHLYACGTGAFHPICTYIEIGHHPEDNIFKLENSHFENGRGKSPYDPKLLTASLLIDGELYSGTAADFMGRDFAIFRTLGHHHPIRTEQHDSRWLNDPKFISAHLISESDNPEDDKVYFFFRENAIDGEHSGKATHARIGQICKNDFGGHRSLVNKWTTFLKARLICSVPGPNGIDTHFDELQDVFLMNFKDPKNPVVYGVFTTSSNIFKGSAVCMYSMSDVRRVFLGPYAHRDGPNYQWVPYQGRVPYPRPGTCPSKTFGGFDSTKDLPDDVITFARSHPAMYNPVFPMNNRPIVIKTDVNYQFTQIVVDRVDAEDGQYDVMFIGTDVGTVLKVVSIPKETWYDLEEVLLEEMTVFREPTAISAMELSTKQQQLYIGSTAGVAQLPLHRCDIYGKACAECCLARDPYCAWDGSACSRYFPTAKRRTRRQDIRNGDPLTHCSDLHHDNHHGHSPEERIIYGVENSSTFLECSPKSQRALVYWQFQRRNEERKEEIRVDDHIIRTDQGLLLRSLQQKDSGNYLCHAVEHGFIQTLLKVTLEVIDTEHLEELLHKDDDGDGSKTKEMSNSMTPSQKVWYRDFMQLINHPNLNTMDEFCEQVWKRDRKQRRQRPGHTPGNSNKWKHLQENKKGRNRRTHEFERAPRSV
